# According to PubChem BioAssay (NCI):
#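 The compound was tested at five concentrations on cells cultured in 96-well plates, with a 48-hour exposure period. GI50 = concentration required for 50% inhibition of growth. TGI denotes the concentration required for complete inhibition of growth.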
# Key:
# Assay in all cases: growth of human tumour cells (NCI), 48 h
# [1] = tested on: DLD-1 colon
# [2] = tested on: DMS 273 small cell lung
# [3] = tested on: HOP-18 NSCLC
# [4] = tested on: KM20L2 colon
# [5] = tested on: MCF7 breast
# [6] = tested on: NCI/ADR-RES ovarian
# [7] = tested on: SNB-78 CNS
# [8] = tested on: NCI-H23 lung
# [9] = tested on: SR leukemia
# [10] = tested on: 786-0 renal
# [11] = tested on: HS 578T breast
# [12] = tested on: MDA-MB-231 breast
# [13] = tested on: MDA-MB-435
# [14] = tested on: T-47D breast
Structure (SMILES),TGI [1] [µM],TGI [2] [µM],TGI [3] [µM],TGI [4] [µM],TGI [5] [µM],TGI [6] [µM],TGI [7] [µM],TGI [8] [µM],TGI [9] [µM],GI50 [2] [µM],GI50 [5] [µM],GI50 [8] [µM],GI50 [7] [µM],TGI [10] [µM],TGI [11] [µM],TGI [12] [µM],TGI [13] [µM],TGI [14] [µM],GI50 [12] [µM],GI50 [9] [µM]
Nc1ccn(C2C=C(CO)C(O)C2O)c(=O)c1 (stereo unspecified),> 62.5,> 625,> 625,> 625,> 625,> 625,> 625,,,,,,,,,,,,,
O=C(Nc1nc2ccc([N+](=O)[O-])cc2s1)C(=O)C(C(=O)c1ccccc1F)C1OC(=O)c2ccccc21 (stereo unspecified),> 100,> 100,,> 100,,,> 100,> 100,54.2,,,,,,,,,,,
CCN(CC)c1ccc2cc(C(=O)Nc3ccc4[nH]c(C(=O)N5C[C@@H](CCl)c6c5cc(OC(=O)Nc5ccccc5)c5[nH]cc(C)c65)cc4c3)oc2c1,,,,> 1000,> 1000,,> 1000,> 1000,,70.4,68.8,230,83.7,,,,,,,
N#C[C@H](OC1OC(COC2OC(CO)C(O)C(O)C2O)C(O)C(O)C1O)c1ccccc1 (stereo partly specified),> 250,> 250,> 250,> 250,> 250,> 250,> 250,> 250,,,,,,,,,,,,
O=c1ssc(=Nc2ccccc2)n1-c1ccccc1,,,,,35.7,68.2,,50.2,40.9,,,,,34.6,98.7,60.5,> 100,39.1,,
CCCCn1c(N)c(-c2nc3ccccc3o2)sc1=S,,,,,> 100,46.8,,37.6,> 100,,,,,33,77.6,34.3,38.5,47.9,,
Cn1c(=O)c2[nH]c(CCNC(=O)c3ccccc3)nc2n(C)c1=O,,,,,,> 100,,> 100,> 100,,,,,> 100,> 100,> 100,> 100,> 100,,
Cc1ccc(C2OC(COCc3ccc(Cl)cc3)C(OCc3ccc(Cl)cc3)C2O)cc1 (stereo unspecified),34.1,18.9,> 100,56.1,,,29.6,40.3,> 100,,,,,,,,,,,
C[N+](C)(C)CCc1ccccc1,> 100,> 100,,> 100,,,> 100,> 100,> 100,,,,,> 100,,,,,,
Cc1cc(S(=O)(=O)Nc2nc3ccccc3nc2-c2cccc([N+](=O)[O-])c2)c(S)cc1Cl,,,,,64.5,48.3,,33.7,47.4,,,,,45.6,73.4,> 100,41,38.9,,
O=C1OC2(CC1C1(O)C3CC4CC(C3)CC1C4)C1CC3CC(C1)CC2C3 (stereo unspecified),> 100,> 100,35.8,,,,> 100,> 100,,,,,,,,,,,,
O=C1C(Cl)=C(Nc2ccc(S(=O)(=O)O)cc2)C(=O)c2ccccc21,,,,,49.1,> 100,,> 100,> 100,,,,,84.6,52.8,> 100,39.6,,,
COc1nc(=O)n(COC(CO)CN2C(=O)c3ccccc3C2=O)cc1Cc1cccc(OCc2ccccc2)c1 (stereo unspecified),> 100,45.4,72.5,55.7,,,> 100,> 100,,,,,,,,,,,,
CO/N=C(/C)c1ccc(NC(=O)CSc2nnc(-c3ccncc3)n2-c2ccccc2)cc1,,,,,,,,> 100,> 100,,,4.24,,,,8.79,,,2.57,> 100
OCCNCCN1CCN(CCCN2c3ccccc3Sc3ccc(C(F)(F)F)cc32)CC1,,,,,39.8,54.6,,51,> 100,,,,,31,70.1,35.5,33.7,50.4,,
O=C1C=CC2(C=C1)O[C@H](Cc1ccccc1)[C@@H](Cc1ccccc1)O2,,,,,1.51,1.11,,3.48,3.26,,,,,[…],2.42,5.44,3.56,> 100,,
C=CC1(NC(=O)c2ccccc2)CCC(C(C)(C)C)CC1 (stereo unspecified),> 100,> 73.2,> 95.6,39.7,> 83.5,76.1,> 100,> 85,,,,,,,,,,,,
CCCNC(=O)C(C)C1CCC2(C)C=CC(=O)C(C)=C2C1O (stereo unspecified),> 100,> 100,> 100,> 100,> 100,> 100,,> 100,,,,,,,,,,,,
